Values of other authors, collected in patent US5723589A, “Carbohydrate conjugated bio-active compounds” (ICN Pharmaceuticals, priority 1995, dated 1998).

Tests used:
[1] = system: GLUT-1 in normal 3T3 fibroblasts; details: Endocrinology 1990, 126, 2778; cited from earlier work
blood brain barrier = details: concentrated solutions infused into the carotid arteries; cited from earlier work
GLUT-1 in cancer cells = details: inhibition of GLUT-1 functioning by binding; cited from earlier work

## Sodium vanadate
[1]
  GLUT-1 expression: able to induce GLUT-1 expression
  extension of the half-life of GLUT-1 mRNA: 2-3 times

## OC[C@@H](O)[C@@H](O)[C@H](O)[C@H](O)CO [mannitol]
Blood brain barrier
  disruption of the blood brain barrier: disrupt the blood brain barrier long enough to allow methotrexate and other potent chemotherapeutic agents to penetrate brain tumors

## Cc1ccc(C(=O)Nc2ccc(S(=O)(=O)O)c3cc(S(=O)(=O)O)cc(S(=O)(=O)O)c23)cc1NC(=O)c1cccc(NC(=O)Nc2cccc(C(=O)Nc3cc(C(=O)Nc4ccc(S(=O)(=O)O)c5cc(S(=O)(=O)O)cc(S(=O)(=O)O)c45)ccc3C)c2)c1 [suramin]
GLUT-1 in cancer cells
  glucose uptake and growth rate of the treated cells: significantly limits glucose uptake and the growth rate of the treated cells
